The text below walks through data of ChEMBL document CHEMBL3352603, “Synthesis and preliminary investigations into novel 1,2,3-triazole-derived androgen receptor antagonists inspired by bicalutamide” (Bioorg Med Chem Lett, 2014).

Bounds are passed on as bounds.

One experiment relates to LNCaP. The experiment is described as follows: Growth inhibition of human LNCAP cells. The class given is functional, cell-based.
A short description of experiment [1]: Growth inhibition of human PC3 cells. The note with it: PC-3. Format: functional, cell-based.

Consider `CC(O)(CS(=O)(=O)c1ccc(F)cc1)c1cn(-c2ccc(C#N)c(C(F)(F)F)c2)nn1` (racemic), for which the IC50 with LNCaP is 45 µM; in experiment [1], more than 300 µM.

In the case of `CC(O)(CS(=O)(=O)c1ccc(F)cc1)c1cn(-c2ccc([N+](=O)[O-])c(C(F)(F)F)c2)nn1` (racemic), the IC50 in the experiment on LNCaP is 36 µM; in experiment [1], more than 300 µM.

Take `CCOC(=O)c1ccc(-n2cc(C(C)(O)CS(=O)(=O)c3ccc(F)cc3)nn2)cc1` (racemic): the half-inhibitory concentration (IC50) (in the experiment with LNCaP; in experiment [1]) was more than 300 µM throughout.

Regarding `CC(O)(CS(=O)(=O)c1ccc(F)cc1)c1cn(-c2ccc(C(=O)O)cc2)nn1` (racemic), the IC50 (in the experiment with LNCaP; in experiment [1]) was more than 300 µM throughout.

Take `CC(O)(CS(=O)(=O)c1ccccc1)c1cn(-c2ccc(C#N)c(C(F)(F)F)c2)nn1` (racemic): the figures for the IC50 (in the experiment with LNCaP; in experiment [1]) were 151 µM and 114 µM, respectively.

In the case of `CC(O)(CS(=O)(=O)c1ccccc1)c1cn(-c2ccc([N+](=O)[O-])c(C(F)(F)F)c2)nn1` (racemic), the IC50 in the experiment on LNCaP was determined as 34 µM; in experiment [1] it was 29 µM.

As to `CC(O)(CS(=O)(=O)c1ccc(F)cc1)C(=O)Nc1ccc(C#N)c(C(F)(F)F)c1` (centres undefined) [BICALUTAMIDE], the IC50 in the experiment on LNCaP worked out at 30 µM; in experiment [1], 58 µM.
